Results reported in patent US20220412956A1, “METHODS FOR ASSESSING TOXICITY OF A COMPOUND” (The Chinese University of Hong Kong, priority 2021, published 2022).
Entries after “also recorded” stand apart in the source; their conditions may differ. Read-outs that look alike come from different tables or passages of the source.

Assays:
hiPSC-CMs [1] = experiment: Mitochondrial morphology, Mitotracker staining (elongated / punctate / perinuclear); set-up: perinuclear mitochondria: dose or concentration left out as unconfirmed; conditions: for mitochondrial morphology (MTDR dye): FIG. 8B, treated CMs vs control; for proportion of cells with healthy elongated mitochondria: FIG. 8C; for proportion of cells with punctate, fragmented mitochondria / proportion of punctate mitochondria / proportion of elongated mitochondria: 3 days; for proportion of cells with punctate, fragmented mitochondria: control 21.0±5.9%; for proportion of cells with punctate mitochondria / elongated mitochondria: 3 days hypoxic treatment + 3 days recovery; for proportion of cells with punctate mitochondria: control 46.1±[…]; for elongated mitochondria: control 47.4±4.9%; for proportion of punctate mitochondria / proportion of elongated mitochondria: hypoxic; for proportion of punctate mitochondria: control 37.3±6.1%; for proportion of elongated mitochondria: control 45.1±7.8%
hiPSC-CMs [2] = test system: hiPSC-CMs
hiPSC-CMs [3] = test system: hiPSC-CMs; remark: listed apart in the source
[4] = molecular target: human mitochondrial RNA polymerase (Homo sapiens, UniProt O00411); conditions: purified enzyme; cited from earlier work
Sequence of human mitochondrial RNA polymerase (O00411 42-1230): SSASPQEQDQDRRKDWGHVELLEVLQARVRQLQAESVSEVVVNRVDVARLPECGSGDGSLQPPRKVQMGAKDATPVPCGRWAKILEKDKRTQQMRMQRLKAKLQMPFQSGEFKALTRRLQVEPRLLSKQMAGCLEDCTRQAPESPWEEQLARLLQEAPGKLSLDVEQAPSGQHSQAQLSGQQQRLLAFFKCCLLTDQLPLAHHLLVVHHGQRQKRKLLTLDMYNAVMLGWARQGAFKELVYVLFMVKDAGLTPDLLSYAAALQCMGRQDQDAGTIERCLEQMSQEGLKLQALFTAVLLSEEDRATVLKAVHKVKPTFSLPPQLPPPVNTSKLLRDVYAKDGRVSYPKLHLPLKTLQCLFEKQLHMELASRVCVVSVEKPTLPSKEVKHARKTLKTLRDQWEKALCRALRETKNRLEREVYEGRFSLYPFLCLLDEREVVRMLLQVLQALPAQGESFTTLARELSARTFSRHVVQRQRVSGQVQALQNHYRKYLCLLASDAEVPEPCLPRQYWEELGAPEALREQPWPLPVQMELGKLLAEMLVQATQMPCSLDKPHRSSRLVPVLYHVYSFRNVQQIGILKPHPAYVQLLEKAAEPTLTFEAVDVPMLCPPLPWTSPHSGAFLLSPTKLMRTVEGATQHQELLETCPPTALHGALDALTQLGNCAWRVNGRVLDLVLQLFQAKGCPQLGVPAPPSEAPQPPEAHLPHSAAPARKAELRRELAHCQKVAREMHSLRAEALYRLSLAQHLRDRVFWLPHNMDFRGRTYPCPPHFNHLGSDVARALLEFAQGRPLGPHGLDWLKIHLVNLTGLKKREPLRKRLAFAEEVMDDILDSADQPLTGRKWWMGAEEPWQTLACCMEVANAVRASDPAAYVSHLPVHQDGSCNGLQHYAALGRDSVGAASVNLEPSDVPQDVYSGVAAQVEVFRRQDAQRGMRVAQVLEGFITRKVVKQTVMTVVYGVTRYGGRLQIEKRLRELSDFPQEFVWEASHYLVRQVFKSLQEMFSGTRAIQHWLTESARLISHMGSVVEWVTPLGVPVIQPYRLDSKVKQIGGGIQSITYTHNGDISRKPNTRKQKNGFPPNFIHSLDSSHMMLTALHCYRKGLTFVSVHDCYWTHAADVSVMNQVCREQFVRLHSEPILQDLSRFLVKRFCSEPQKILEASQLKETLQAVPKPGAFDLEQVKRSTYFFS

hiPSC-CMs [5] = experiment: Mitochondrial mass, mitotracker dye (MTDR) intensity; assay type: cell-based, human; conditions: 0.1-12.5 μM, 3 days, normoxic and hypoxic
Protocol: (§1) Cells were incubated with Mitotracker Deep Red FM dye (200 nM; Thermo Fisher Scientific) and Hoescht 33342 dye (5 μg/ml; Thermo Fisher Scientific) for 30 min at 37° C., after which they were fixed with 4% paraformaldehyde at room temperature for 15 min followed by 15 min wash with PBS and imaged with a Leica THUNDER Imager microscope or Nikon AIR HD25 confocal microscope.
The first consisted of densely organised, elongated mitochondrial networks spread throughout the cytoplasm and this is considered to represent a healthy balance of fission and fusion. The second had punctate, fragmented mitochondria consistent with increased fission.

hiPSC-CMs [6] = experiment: Mitochondrial membrane potential (Δψm), TMRE; assay type: cell-based, human; conditions: 3 days, treated vs control
Protocol: Δψm was measured using the tetramethylrhodamine, ethyl ester (TMRE), a potentiometric dye whose fluorescent intensity is proportional to the mitochondrial potential. CMs were plated into Matrigel-coated surfaces in RPMI/B27 medium. Cells were incubated with TMRE (25 nM; Thermo Fisher Scientific) for 30 min at 37° C., after which they were washed with DPBS and intensity of fluorescence was measured using the Synergy HTX plate-reader (Biotek, Winooski, Vt.) with excitation and emission wavelengths of 540 nm and 590 nm.

[7] = test system: ND1, ND5, SDHA, COX6A2, ATP6, ACADVL mRNA; experiment: qRT-PCR of genes important for mitochondrial function; assay type: cell-based, human; conditions: 3 days, normoxic or hypoxic, normalised to B2M
Protocol: Total RNA was extracted using Trizol Reagent according to the manufacturer's instructions (Thermo Fisher Scientific). Extracted RNA was reverse transcribed using PrimeScript RT Master Mix (Takara). Quantitative RT-PCR of target genes was performed with GoTaq® qPCR Master Mix (Promega) using an QuantStudio™ 12K Flex. Gene transcript abundance was normalised to B2M and then to that of the untreated sample to control for biological variations among the different sets of samples.
Of the ETC genes, ND1, ND5 and ATP6 are encoded by the mitochondrial genome, while COX6A2 and SDHA are encoded by the nuclear genome. […] Overall, the general repression of ETC gene transcripts was consistent with and might contribute to the reduced redox potential observed (FIG. 1A).

hiPSC-CMs [8] = experiment: Nuclear condensation / nuclear morphology / cell number, Hoescht staining; assay type: cell-based, human
Protocol: as §1
Similarly, nuclei were scored as normal (relatively large nuclei with regular shape) or condensed (intensely stained nuclei with irregular shape) by a technician blinded to the identities of the samples.
Nuclear condensation is a sign of apoptosis and manifest as brightly-stained, small and ‘condensed’ nuclei.

hiPSC-CMs [9] = experiment: In vitro hiPSC-CM cardiotoxicity model, overall; assay type: cell-based, human; conditions: 0.1 μM and 0.5 μM
Description: Importantly, these changes persisted and worsened after the withdrawal of this drug.
Human iPSC-CMs were exposed to remdesivir under normal and hypoxic conditions for three days. There is a paucity of data which directly correlates oxygen saturation in vivo with oxygen concentration in vitro. […] Human iPSC-CMs exposed to 2.5% 02 were viable, beat and were morphologically indistinguishable from hiPSC-CMs cultured under normoxic (20% 02) conditions.
Importantly, these abnormalities persisted after cessation of treatment, culminating in increased cell death.

hiPSC-CMs [10] = conditions: human
[11] = cited from earlier work
[12] = cited from earlier work; for peak plasma concentration: healthy adult volunteers; for Cmax: healthy volunteers, read-out: Cmax / peak plasma concentration
[13] = test system: HT29, HCT116, HepG2 and PLC/PRF/5; conditions: high doses of 10 or 20 μM; cited from earlier work
hPSC-CMs = conditions: cited from earlier work
hiPSC-CMs [14] = test system: hiPSC-CMs; remark: listed apart in the source
[15] = co-treatment with 12.5 μM remdesivir

What does the source list for `COc1nc(N)nc2c1ncn2[C@@H]1O[C@H](COP(=O)(N[C@@H](C)C(=O)OCC(C)(C)C)Oc2cccc3ccccc23)[C@@H](O)[C@@]1(C)O` (some centres unmarked) [BMS-986094]?
mitochondrial morphology (MTDR dye) (hiPSC-CMs [1]): punctate (arrowhead) or perinuclear (arrow) mitochondria; proportion of cells with healthy elongated mitochondria (hiPSC-CMs [1]): reduced

Which redox potential (hiPSC-CMs [2]; co-treatment with 2.5 μM remdesivir, normoxic and hypoxic) does the source give for `COc1cc(-n2c(=S)[nH]c3ccccc3c2=O)c(Cl)cc1Cl` [mdivi-1] here?
The redox potential was “restored redox potential”.

And the redox potential (hiPSC-CMs [2]; [15])?
Its redox potential is “did not have noticeable effect”.

What about the “sarcomeres (MLC2V-eGFP)” value (hiPSC-CMs [3]; MD 15 mM co-treatment vs remdesivir alone (FIG. 5D)) of the same compound?
The value was “more striated sarcomeres”.

And the sarcomere arrangement (hiPSC-CMs [3]; co-treatment with 2.5 μM and 12.5 μM remdesivir)?
Its sarcomere arrangement is “improved the sarcomere arrangement”.

And the “proportion of cells with elongated mitochondria” value (hiPSC-CMs [1]; MD 15 mM, (FIG. 5B))?
Its value is “increased the proportion of cells with elongated mitochondria”.

And the “formation of elongated mitochondria vs remdesivir alone” value (hiPSC-CMs [1]; co-treatment with 2.5 μM remdesivir, normoxic)?
Its value is “significantly promoted the formation of elongated mitochondria”.

What about the “protection of mitochondrial morphology” value (hiPSC-CMs [1]; [15]) of the same compound?
The value was “could only significantly protect hiPSC-CMs under hypoxic but not normoxic conditions”.

What about the “proportion of cells with punctate mitochondria vs remdesivir alone” value (hiPSC-CMs [1]; co-treatment with remdesivir, hypoxia) of the same compound?
Its value is “corresponding decrease”.

With `N#C[C@@]1(c2ccc3c(N)ncnn23)O[C@H](COP(=O)(O)OP(=O)(O)OP(=O)(O)O)[C@@H](O)[C@H]1O` [remdesivir-triphosphate] as the compound, how does the “selectivity value (discrimination against the analogue)” value [4] read?
Its value is roughly 500 fold.

Which mitochondrial mass (hiPSC-CMs [5]) does the source give for `CCC(CC)COC(=O)[C@H](C)N[P@](=O)(OC[C@H]1O[C@@](C#N)(c2ccc3c(N)ncnn23)[C@H](O)[C@@H]1O)Oc1ccccc1` [remdesivir] here?
Its mitochondrial mass is “not statistically different”.

And the “depolarisation of mitochondrial membrane potential (Δψm)” value (hiPSC-CMs [6])?
The value was “No statistically significant decrease”.

And the “ATP6 mRNA expression” value [7]?
The value was “dose-dependently and significantly reduced”.

What about the “COX6A2 mRNA expression” value [7] of the same compound?
The value was “dose-dependently and significantly reduced”.

And the “ND1 mRNA expression” value [7]?
Its value is “dose-dependently and significantly reduced”.

What about the “ND5 mRNA expression” value [7] of the same compound?
Its value is “dose-dependently and significantly reduced”.

And the “proportion of condensed nuclei” value (hiPSC-CMs [8]; 2.5 μM and 12.5 μM, three days after treatment (recovery))?
The value was “dose dependent increase”.

And the cell number (hiPSC-CMs [8]; 3 days, all samples)?
Its cell number is “No significant difference”.

And the “number / proportion of cells with condensed nuclei” value (hiPSC-CMs [8]; immediately after 3 days of treatment)?
Its value is “did not reveal any significant increase; also recorded: no statistically significant difference”.

And the persistent functional alterations (hiPSC-CMs [9])?
The persistent functional alterations was “did not induce persistent functional alterations”.

And the “effect on redox potential” value (hiPSC-CMs [2]; 0.1 μM and 0.5 μM, 3 days, normoxic and hypoxic)?
The value was “negligible effects”.

What about the “decrease of redox potential” value (hiPSC-CMs [2]; 2.5 μM, 3 days hypoxic treatment + 3 days recovery without drug) of the same compound?
Its value is 41.0±8.7%.

What about the “decrease of redox activity” value (hiPSC-CMs [2]; 2.5 μM, 3 days, hypoxic (2.5% O2)) of the same compound?
The value was 22.5±5.4%.

And the “decrease of redox activity” value (hiPSC-CMs [2]; 2.5 μM, 3 days, normoxic)?
Its value is 21.0±3.9%.

And the “decrease of redox potential” value (hiPSC-CMs [2]; 12.5 μM, 3 days hypoxic treatment + 3 days recovery without drug)?
Its value is 54.6±8.5%.

What about the “decrease of redox potential” value (hiPSC-CMs [2]; 12.5 μM, 3 days normoxic treatment + 3 days recovery without drug) of the same compound?
Its value is 44.1±8.1%.

What about the “decrease of redox activity” value (hiPSC-CMs [2]; 12.5 μM, 3 days, hypoxic (2.5% O2)) of the same compound?
The value was 28.7±6.9%.

What about the “decrease of redox activity” value (hiPSC-CMs [2]; 12.5 μM, 3 days, normoxic) of the same compound?
The value was 35.9±4.0%.

And the sarcomeric arrangement (hiPSC-CMs [3]; 0.5 μM, 3 days, hypoxia)?
The sarcomeric arrangement was “induced the thinning and truncation of myofibrils”.

What about the sarcomeric arrangement (hiPSC-CMs [3]; 2.5 μM and 12.5 μM, 3 days treatment + 3 days recovery) of the same compound?
Its sarcomeric arrangement is “disorganised sarcomeric arrangement”.

What about the sarcomeric arrangement (hiPSC-CMs [3]; 0.1 and 0.5 μM, 3 days, normoxic) of the same compound?
Its sarcomeric arrangement is “did not have any noticeable effect”.

What about the sarcomeric arrangement (hiPSC-CMs [3]; 2.5 and 12.5 μM, 3 days, normoxic and hypoxic) of the same compound?
The sarcomeric arrangement was “greatly disorganised myofibrils”.

And the spontaneous firing frequency (hiPSC-CMs [10])?
Its spontaneous firing frequency is 0.36±0.07 Hz.

And the “rate of cardiac death” value ([11]; WHO Solidarity trial, comparator 0.4%)?
Its value is 0.3%.

And the serious atrial fibrillation ([11]; one clinical study, placebo 0.2%)?
Its serious atrial fibrillation is 0.9%.

What about the “risk of cardiac arrest” value ([11]; one clinical study, placebo 1.4%) of the same compound?
Its value is 1.9%.

And the peak plasma concentration ([12]; day 1 (200 mg))?
The peak plasma concentration was 5.4 µg/mL.

What about the peak plasma concentration ([12]; day 5) of the same compound?
Its peak plasma concentration is 2.6 µg/mL.

And the Cmax ([12]; day 1 (200 mg))?
Its Cmax is 8.9 µM.

And the Cmax ([12]; day 5)?
The Cmax was 4.3 µM.

What about the mitochondrial toxicity [13] of the same compound?
The mitochondrial toxicity was “demonstrated”.

And the QT intervals (hPSC-CMs)?
Its QT intervals is “prolong QT intervals”.

And the “mitochondrial morphology, treated vs control” value (hiPSC-CMs [1]; 0.5 μM, 3 days treatment + 3 days recovery)?
Its value is “no significant difference”.

And the “proportion of cells with punctate, fragmented mitochondria” value (“proportion … fragmented mitochondria” below) (hiPSC-CMs [1]; 0.5 μM, normoxic)?
Its value is 44.4±7.1%.

What about the “proportion of cells with punctate mitochondria” value (hiPSC-CMs [1]; 2.5 μM) of the same compound?
Its value is 66.1±1.1%.

And the elongated mitochondria (hiPSC-CMs [1]; 2.5 μM)?
Its elongated mitochondria is 19.7±2.5%.

And the “proportion of punctate mitochondria” value (hiPSC-CMs [1]; 2.5 μM)?
The value was 64.4±4.1%.

And the “proportion of elongated mitochondria” value (hiPSC-CMs [1]; 2.5 μM)?
The value was 18.7±3.0%.

What about the “proportion … fragmented mitochondria” value (hiPSC-CMs [1]; 2.5 μM, normoxic) of the same compound?
Its value is 57.3±7.2%.

What about the “proportion of cells with punctate mitochondria” value (hiPSC-CMs [1]; 12.5 μM) of the same compound?
Its value is 65.5±6.6%.

And the elongated mitochondria (hiPSC-CMs [1]; 12.5 μM)?
Its elongated mitochondria is 4.6±2.1%.

And the “proportion of cells with perinuclear mitochondria” value (hiPSC-CMs [1]; 12.5 μM, 3 days treatment + 3 days recovery (follows the hypoxic data), control 6.5±1.5%)?
The value was 29.9±5.7%.

And the “proportion of punctate mitochondria” value (hiPSC-CMs [1]; 12.5 μM)?
The value was 58.9±8%.

And the “proportion of elongated mitochondria” value (hiPSC-CMs [1]; 12.5 μM)?
The value was 17.8±4.2%.

And the “proportion … fragmented mitochondria” value (hiPSC-CMs [1]; 12.5 μM, normoxic)?
Its value is 64.4±9.5%.

And the perinuclear mitochondria (hiPSC-CMs [1]; 3 days treatment + 3 days recovery (FIG. 4C))?
Its perinuclear mitochondria is “enriched”.

And the “proportion of cells with healthy elongated mitochondria” value (hiPSC-CMs [1])?
The value was “reduced”.

Which “proportion of cells with healthy elongated mitochondria” value (hiPSC-CMs [14]) does the source give for `NC(=O)c1ncn([C@@H]2O[C@H](CO)[C@@H](O)[C@H]2O)n1` [ribavirin] here?
The value was “did not have noticeable effect”.

And the “mitochondrial morphology (MTDR dye)” value (hiPSC-CMs [1])?
Its value is “primarily had elongated mitochondria”.

With β-D-N4-hydroxycytidine as the compound, how does the “mitochondrial morphology (MTDR dye)” value (hiPSC-CMs [1]) read?
Its value is “punctate (arrowhead) or perinuclear (arrow) mitochondria”.

What about the “proportion of cells with healthy elongated mitochondria” value (hiPSC-CMs [1]) of the same compound?
The value was “reduced”.
